According to US10800791B2, “Triazole ACC inhibitors and uses thereof” (Gilead Apollo, LLC, priority 2015, dated 2020):
In brackets after ≈: the same amount, converted by molar mass. Read-outs that look alike come from different tables or passages of the source.

Columns and labels:
[1] = molecular target: human (hACC2) (Homo sapiens, UniProt O00763); assay: In vitro ACC inhibition assay (ADP-Glo), hACC2; format: biochemical; conditions: 5 nM ACC2, 20 μM ATP, 20 μM acetyl-CoA
Method: The detailed procedure is as follows. […] 10 μL ADP glo reagent was added. […] 20 μL kinase detection reagent was added.

[2] = system: C. albicans; assay: Antifungal Activity Assay (broth microtiter MIC), C. albicans; format: cell-based, Candida albicans; conditions: Candida albicans, ATCC90028, 48 h
Outline: (§1)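 Endpoint: lowest concentration visibly inhibiting growth relative to control after 48 h. Inoculum of 2.5×10^3 CFU/mL final in RPMI 1640+MOPS, prepared from overnight 35° C agar cultures; test compounds diluted in water to 128 μg/mL before plating.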

[3] = system: C. krusei; assay: Antifungal Activity Assay (broth microtiter MIC), C. krusei; format: cell-based, Candida krusei; conditions: Pichia kudriavzevii, ATCC6258, 48 h
Outline: as §1

[4] = system: C. parapsilosis; assay: Antifungal Activity Assay (broth microtiter MIC), C. parapsilosis; format: cell-based, Candida parapsilosis; conditions: Lodderomyces parapsilosis, ATCC22019, 48 h
Outline: as §1

[5] = system: Botrtyis cinerea (Bc); assay: Growth inhibition assay of fungal pathogens, Bc; format: cell-based; conditions: 48 h, growth inhibition at 48 hours vs 2% DMSO control
Outline: (§2)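 Percent inhibition derived at 48 hours from OD600 and visual scores versus 2% DMSO control, with media+DMSO blank as background. Spore inocula in 17% V8 medium were sized from 48 h growth curves; compounds tested at final 50/10/2 or 2/0.4/0.08 ppm.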

[6] = system: Collectotrichum graminicola (Cg); assay: Growth inhibition assay of fungal pathogens, Cg; format: cell-based; conditions: 48 h, growth inhibition at 48 hours vs 2% DMSO control
Outline: as §2

[7] = system: Diplodia maydis (Dm); assay: Growth inhibition assay of fungal pathogens, Dm; format: cell-based; conditions: Stenocarpella maydis, 48 h, growth inhibition at 48 hours vs 2% DMSO control
Outline: as §2

[8] = system: Fusarium moniliforme (Fm); assay: Growth inhibition assay of fungal pathogens, Fm; format: cell-based; conditions: Fusarium verticillioides, 48 h, read-out: Concentration at 90% Inhibition Fm
Outline: as §2

[9] = system: Fusarium virguliforme (Fv); assay: Growth inhibition assay of fungal pathogens, Fv; format: cell-based; conditions: 48 h
Outline: as §2

[10] = system: Phytophthora capsici (Pc); assay: Growth inhibition assay of fungal pathogens, Pc; format: cell-based; conditions: 48 h
Outline: as §2

[11] = system: Rhizoctonia solani (Rs); assay: Growth inhibition assay of fungal pathogens, Rs; format: cell-based; conditions: 48 h
[12] = system: Septoria tritici (St); assay: Growth inhibition assay of fungal pathogens, St; format: cell-based; conditions: Zymoseptoria tritici, 48 h, growth inhibition at 48 hours vs 2% DMSO control
Outline: as §2

[13] = molecular target: fungal (fACC2) (UniProt Q00955); conditions: read-out: fACC2 (in vitro ACC2 Inhibition Assay, IC50), ADP-Glo, 5 nM ACC2, 20 μM ATP, 20 μM acetyl-CoA
[14] = read-out: MIC, C. albicans ATCC 90028, Table 3b (additional results), 3 replicates, MIC recorded at 48 h
[15] = read-out: MIC, C. krusei ATCC 6258, Table 3b (additional results), 3 replicates, MIC recorded at 48 h
[16] = read-out: MIC, C. parapsilosis ATCC 22019, Table 3b (additional results), 3 replicates, MIC recorded at 48 h
[17] = read-out: Concentration at 90% Inhibition Bc, Botrtyis cinerea
[18] = read-out: Concentration at 90% Inhibition Cg, Collectotrichum graminicola
[19] = read-out: Concentration at 90% Inhibition Dm, Diplodia maydis
[20] = read-out: Concentration at 90% Inhibition Fv, Fusarium virguliforme, growth inhibition at 48 hours vs 2% DMSO control
[21] = read-out: Concentration at 90% Inhibition Pc, Phytophthora capsici, growth inhibition at 48 hours vs 2% DMSO control
[22] = read-out: Concentration at 90% Inhibition Rs, Rhizoctonia solani, mycelial plugs, growth inhibition at 48 hours vs 2% DMSO control
[23] = read-out: Concentration at 90% Inhibition St, Septoria tritici
[24] = Table 3b (additional results), ATCC 90028, 3 replicates, MIC recorded at 48 h, read-out: MIC, C. albicans ATCC 90028
[25] = Table 3b (additional results), ATCC 6258, 3 replicates, MIC recorded at 48 h, read-out: MIC, C. krusei ATCC 6258
[26] = Table 3b (additional results), ATCC 22019, 3 replicates, MIC recorded at 48 h, read-out: MIC, C. parapsilosis ATCC 22019
[27] = Botrtyis cinerea, read-out: Concentration at 90% Inhibition Bc
[28] = Collectotrichum graminicola, read-out: Concentration at 90% Inhibition Cg
[29] = Diplodia maydis, read-out: Concentration at 90% Inhibition Dm
[30] = Fusarium moniliforme, growth inhibition at 48 hours vs 2% DMSO control
[31] = growth inhibition at 48 hours vs 2% DMSO control, read-out: Concentration at 90% Inhibition Fv
[32] = growth inhibition at 48 hours vs 2% DMSO control, read-out: Concentration at 90% Inhibition Pc
[33] = mycelial plugs, growth inhibition at 48 hours vs 2% DMSO control, read-out: Concentration at 90% Inhibition Rs
[34] = Septoria tritici, read-out: Concentration at 90% Inhibition St

human (hACC2), sequence (O00763 whole entry): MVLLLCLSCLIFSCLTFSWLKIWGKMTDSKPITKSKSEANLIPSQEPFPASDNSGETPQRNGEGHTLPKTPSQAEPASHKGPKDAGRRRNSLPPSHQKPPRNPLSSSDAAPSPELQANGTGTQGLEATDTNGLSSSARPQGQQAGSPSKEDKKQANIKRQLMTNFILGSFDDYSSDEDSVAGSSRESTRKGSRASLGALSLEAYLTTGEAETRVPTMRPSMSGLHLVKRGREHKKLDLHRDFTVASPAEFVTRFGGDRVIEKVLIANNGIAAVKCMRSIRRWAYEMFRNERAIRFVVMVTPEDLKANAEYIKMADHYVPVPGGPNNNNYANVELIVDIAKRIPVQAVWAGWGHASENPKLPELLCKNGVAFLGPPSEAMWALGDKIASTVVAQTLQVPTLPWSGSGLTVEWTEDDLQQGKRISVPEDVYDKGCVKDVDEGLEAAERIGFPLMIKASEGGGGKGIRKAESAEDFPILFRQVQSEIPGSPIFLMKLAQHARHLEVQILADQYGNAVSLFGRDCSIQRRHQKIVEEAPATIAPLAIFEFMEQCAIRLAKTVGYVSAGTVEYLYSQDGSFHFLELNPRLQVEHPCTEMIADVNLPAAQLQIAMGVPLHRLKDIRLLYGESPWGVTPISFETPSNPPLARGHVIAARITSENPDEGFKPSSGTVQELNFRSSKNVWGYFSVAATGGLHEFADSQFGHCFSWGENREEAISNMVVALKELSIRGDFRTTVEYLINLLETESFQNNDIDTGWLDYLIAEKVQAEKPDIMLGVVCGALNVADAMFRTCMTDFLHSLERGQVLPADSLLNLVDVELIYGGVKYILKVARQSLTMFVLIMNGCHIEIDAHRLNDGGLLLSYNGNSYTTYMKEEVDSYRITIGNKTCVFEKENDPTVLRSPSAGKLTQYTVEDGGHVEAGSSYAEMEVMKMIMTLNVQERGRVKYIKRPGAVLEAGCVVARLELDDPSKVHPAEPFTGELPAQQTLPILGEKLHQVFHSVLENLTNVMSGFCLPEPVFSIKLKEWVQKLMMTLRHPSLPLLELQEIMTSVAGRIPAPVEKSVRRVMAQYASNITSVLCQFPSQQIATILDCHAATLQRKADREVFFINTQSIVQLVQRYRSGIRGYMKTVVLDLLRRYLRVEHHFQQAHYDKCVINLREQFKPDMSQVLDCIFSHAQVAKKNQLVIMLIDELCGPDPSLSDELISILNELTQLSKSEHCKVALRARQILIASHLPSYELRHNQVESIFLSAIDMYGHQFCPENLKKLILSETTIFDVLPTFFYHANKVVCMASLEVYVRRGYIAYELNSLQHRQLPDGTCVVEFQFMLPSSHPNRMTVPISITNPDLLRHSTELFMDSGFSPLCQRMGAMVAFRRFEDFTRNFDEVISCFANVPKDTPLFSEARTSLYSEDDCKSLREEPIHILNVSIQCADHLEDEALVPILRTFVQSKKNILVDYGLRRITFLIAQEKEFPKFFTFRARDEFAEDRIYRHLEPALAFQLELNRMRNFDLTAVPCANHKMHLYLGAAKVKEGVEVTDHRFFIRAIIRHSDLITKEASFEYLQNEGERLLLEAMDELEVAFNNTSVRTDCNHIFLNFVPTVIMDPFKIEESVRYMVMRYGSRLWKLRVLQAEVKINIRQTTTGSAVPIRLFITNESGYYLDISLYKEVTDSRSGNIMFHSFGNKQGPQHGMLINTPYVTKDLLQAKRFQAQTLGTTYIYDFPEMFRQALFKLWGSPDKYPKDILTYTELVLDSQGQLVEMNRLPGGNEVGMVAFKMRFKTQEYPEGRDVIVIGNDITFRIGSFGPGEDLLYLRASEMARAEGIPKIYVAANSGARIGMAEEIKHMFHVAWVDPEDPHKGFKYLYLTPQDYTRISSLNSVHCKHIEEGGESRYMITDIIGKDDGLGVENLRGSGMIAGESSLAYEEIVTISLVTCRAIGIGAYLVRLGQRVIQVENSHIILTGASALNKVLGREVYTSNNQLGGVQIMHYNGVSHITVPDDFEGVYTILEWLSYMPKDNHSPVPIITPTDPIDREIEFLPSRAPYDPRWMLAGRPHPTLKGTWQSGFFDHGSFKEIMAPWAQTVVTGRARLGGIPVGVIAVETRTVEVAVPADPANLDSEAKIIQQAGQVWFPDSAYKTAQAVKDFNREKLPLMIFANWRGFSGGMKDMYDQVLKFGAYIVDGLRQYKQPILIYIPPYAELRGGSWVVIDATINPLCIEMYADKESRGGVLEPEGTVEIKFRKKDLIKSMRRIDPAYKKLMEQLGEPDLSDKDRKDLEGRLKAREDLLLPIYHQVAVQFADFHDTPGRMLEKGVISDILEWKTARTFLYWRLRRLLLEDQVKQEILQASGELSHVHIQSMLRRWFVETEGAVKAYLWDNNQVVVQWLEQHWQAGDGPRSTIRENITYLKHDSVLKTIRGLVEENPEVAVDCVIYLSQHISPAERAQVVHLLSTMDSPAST
fungal (fACC2), sequence (Q00955 whole entry): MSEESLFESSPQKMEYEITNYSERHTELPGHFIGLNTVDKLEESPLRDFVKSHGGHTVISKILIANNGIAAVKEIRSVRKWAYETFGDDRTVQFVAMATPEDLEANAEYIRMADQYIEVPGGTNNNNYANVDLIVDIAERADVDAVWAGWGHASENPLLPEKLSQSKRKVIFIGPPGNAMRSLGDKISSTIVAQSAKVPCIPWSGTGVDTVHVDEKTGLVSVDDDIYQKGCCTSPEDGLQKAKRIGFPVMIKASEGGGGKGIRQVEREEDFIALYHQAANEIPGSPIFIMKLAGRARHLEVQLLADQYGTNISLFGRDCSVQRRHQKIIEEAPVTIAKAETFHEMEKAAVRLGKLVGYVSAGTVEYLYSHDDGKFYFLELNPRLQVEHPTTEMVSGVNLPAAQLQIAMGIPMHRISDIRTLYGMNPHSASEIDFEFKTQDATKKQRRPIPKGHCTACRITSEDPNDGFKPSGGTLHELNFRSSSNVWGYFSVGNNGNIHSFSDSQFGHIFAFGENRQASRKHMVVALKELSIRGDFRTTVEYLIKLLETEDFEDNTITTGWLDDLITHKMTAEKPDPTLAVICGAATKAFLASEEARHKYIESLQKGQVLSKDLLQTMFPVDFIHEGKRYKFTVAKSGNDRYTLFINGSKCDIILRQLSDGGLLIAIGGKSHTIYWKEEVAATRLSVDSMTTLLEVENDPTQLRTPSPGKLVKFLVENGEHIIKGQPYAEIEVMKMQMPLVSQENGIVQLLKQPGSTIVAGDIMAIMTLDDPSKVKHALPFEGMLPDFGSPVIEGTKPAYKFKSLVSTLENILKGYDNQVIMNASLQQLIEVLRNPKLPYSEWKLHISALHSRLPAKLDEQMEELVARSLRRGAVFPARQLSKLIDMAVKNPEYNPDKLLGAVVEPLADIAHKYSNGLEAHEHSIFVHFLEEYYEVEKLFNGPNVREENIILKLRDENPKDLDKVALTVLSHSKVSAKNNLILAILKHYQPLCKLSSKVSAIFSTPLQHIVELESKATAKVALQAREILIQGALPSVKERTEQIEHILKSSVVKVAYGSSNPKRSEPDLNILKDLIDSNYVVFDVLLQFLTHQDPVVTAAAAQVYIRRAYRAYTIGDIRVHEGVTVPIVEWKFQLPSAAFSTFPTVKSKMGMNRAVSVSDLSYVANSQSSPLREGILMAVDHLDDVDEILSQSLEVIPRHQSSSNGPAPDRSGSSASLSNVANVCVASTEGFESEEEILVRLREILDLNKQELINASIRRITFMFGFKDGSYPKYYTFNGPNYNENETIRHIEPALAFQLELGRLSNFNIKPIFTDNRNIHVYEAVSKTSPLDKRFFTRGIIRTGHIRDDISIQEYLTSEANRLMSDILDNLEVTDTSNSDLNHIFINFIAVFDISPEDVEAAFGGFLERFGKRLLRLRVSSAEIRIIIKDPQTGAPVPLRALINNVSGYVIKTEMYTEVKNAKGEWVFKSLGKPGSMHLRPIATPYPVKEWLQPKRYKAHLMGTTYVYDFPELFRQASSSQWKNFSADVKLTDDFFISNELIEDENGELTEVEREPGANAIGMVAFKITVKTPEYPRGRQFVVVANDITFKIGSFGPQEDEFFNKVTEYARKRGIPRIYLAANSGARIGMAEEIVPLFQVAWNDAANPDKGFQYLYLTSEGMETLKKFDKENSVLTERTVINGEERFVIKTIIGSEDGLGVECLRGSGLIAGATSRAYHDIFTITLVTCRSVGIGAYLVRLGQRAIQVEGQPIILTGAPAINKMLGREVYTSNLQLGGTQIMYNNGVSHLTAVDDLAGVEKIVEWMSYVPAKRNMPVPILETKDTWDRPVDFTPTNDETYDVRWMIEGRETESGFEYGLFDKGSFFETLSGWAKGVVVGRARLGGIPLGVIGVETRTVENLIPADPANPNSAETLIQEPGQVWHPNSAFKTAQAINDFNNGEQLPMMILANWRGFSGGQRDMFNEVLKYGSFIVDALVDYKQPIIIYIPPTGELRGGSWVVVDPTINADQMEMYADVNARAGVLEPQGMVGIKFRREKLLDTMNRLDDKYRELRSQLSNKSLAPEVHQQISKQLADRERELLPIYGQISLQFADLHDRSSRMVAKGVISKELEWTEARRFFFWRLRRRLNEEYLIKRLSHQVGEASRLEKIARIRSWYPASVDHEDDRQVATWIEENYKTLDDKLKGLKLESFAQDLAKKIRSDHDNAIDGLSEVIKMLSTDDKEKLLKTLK

Work on `COc1ccc(F)cc1[C@H](Cn1c(=O)n(C(C)(C)C(=O)NC(C)C)c(=O)c2c(C)c(-n3nccn3)sc21)OCC(C)(C)C#N` [Compound I-154] yielded an IC50 ([1]; Table 2a) of 5 to 10 nM, an IC50 ([1]; Table 2b, additional results) of 5 to 10 nM and an MIC ([2]; read-out: MIC, C. albicans ATCC 90028, Table 3a, 3 replicates, MIC recorded at 48 h) of 0.25 to 1 µg/mL (≈ 0.4 to 1.6 µM). The MIC [2, 14] was 0.25 to 1 µg/mL (≈ 0.4 to 1.6 µM), the MIC ([3]; read-out: MIC, C. krusei ATCC 6258, Table 3a, 3 replicates, MIC recorded at 48 h) was 0.25 to 1 µg/mL (≈ 0.4 to 1.6 µM) and the MIC [3, 15] was 0.25 to 1 µg/mL (≈ 0.4 to 1.6 µM). For the same molecule, the MIC ([4]; read-out: MIC, C. parapsilosis ATCC 22019, Table 3a, 3 replicates, MIC recorded at 48 h) was 0.25 to 1 µg/mL (≈ 0.4 to 1.6 µM), the MIC [4, 16] was 1.01 to 2 µg/mL (≈ 1.61 to 3.2 µM) and the IC90 [5, 17] was 0.4 µg/mL (≈ 0.639 µM). It also gave an IC90 [6, 18] of 0.4 µg/mL (≈ 0.639 µM), an IC90 [7, 19] of 0.08 µg/mL (≈ 0.128 µM) and an IC90 [8] of 0.08 µg/mL (≈ 0.128 µM). For the same molecule, the IC90 [9, 20] was 0.4 µg/mL (≈ 0.639 µM), the IC90 [10, 21] was greater than 50 µg/mL and the IC90 [11, 22] was 0.08 µg/mL (≈ 0.128 µM). It also gave an IC90 [12, 23] greater than 50 µg/mL, an IC50 ([13]; Table 2a) of 1 to 5 nM and an IC50 ([13]; Table 2b, additional results) of 1 to 5 nM.
`Cc1c(-n2nccn2)sc2c1c(=O)n(C(C)(C)C(=O)NC(C)C)c(=O)n2C[C@H](OCC(C)(C)O)c1cc(F)ccc1OCC#N` [Compound I-235] was tested, and the IC50 ([1]; Table 2b, additional results) was 10 to 40 nM, the MIC [2, 14] was 0.25 to 1 µg/mL (≈ 0.39 to 1.56 µM) and the MIC [3, 15] was 2.01 to 4 µg/mL (≈ 3.13 to 6.23 µM). It also gave an MIC [4, 16] of 1.01 to 2 µg/mL (≈ 1.57 to 3.12 µM), an IC90 [5, 17] of 2 µg/mL (≈ 3.12 µM) and an IC90 [6, 18] of 0.4 µg/mL (≈ 0.623 µM). The IC90 [7, 19] was 2 µg/mL (≈ 3.12 µM), the IC90 [8] was 0.4 µg/mL (≈ 0.623 µM) and the IC90 [9, 20] was 2 µg/mL (≈ 3.12 µM). The IC90 [10, 21] was 10 µg/mL (≈ 15.6 µM), the IC90 [11, 22] was 0.4 µg/mL (≈ 0.623 µM) and the IC90 [12, 23] was greater than 50 µg/mL. It also gave an IC50 ([13]; Table 2b, additional results) of 1 to 5 nM.
For `CCNC(=O)[C@H](C)n1c(=O)c2c(C)c(-n3nccn3)sc2n(C[C@H](OCCC#N)c2cc(F)ccc2OC)c1=O` [Compound I-253], the IC50 ([1]; Table 2b, additional results) was 5 to 10 nM, the MIC [2, 24] was greater than 4.01 µg/mL and the MIC [3, 25] was greater than 4.01 µg/mL. For the same molecule, the MIC [4, 26] was 2.01 to 4 µg/mL (≈ 3.53 to 7.02 µM), the IC90 [5, 27] was 2 µg/mL (≈ 3.51 µM) and the IC90 [6, 28] was 10 µg/mL (≈ 17.6 µM). For the same molecule, the IC90 [7, 29] was 10 µg/mL (≈ 17.6 µM), the IC90 [8, 30] was 0.4 µg/mL (≈ 0.702 µM) and the IC90 [9, 31] was 10 µg/mL (≈ 17.6 µM). The IC90 [10, 32] was greater than 50 µg/mL, the IC90 [11, 33] was 2 µg/mL (≈ 3.51 µM) and the IC90 [12, 34] was greater than 50 µg/mL. The IC50 ([13]; Table 2b, additional results) was 0.3 to 1 nM.
`CNC(=O)C(C)(C)n1c(=O)c2c(C)c(-n3nccn3)sc2n(C[C@H](OCCC#N)c2ccccc2OC)c1=O` [Compound I-143] showed an IC50 ([1]; Table 2a) of 5 to 10 nM, an IC50 ([1]; Table 2b, additional results) of 5 to 10 nM and an MIC ([2]; Table 3a, ATCC 90028, 3 replicates, MIC recorded at 48 h, read-out: MIC, C. albicans ATCC 90028) of 2.1 to 4 µg/mL (≈ 3.81 to 7.25 µM). It also gave an MIC [2, 24] of 2.01 to 4 µg/mL (≈ 3.64 to 7.25 µM), an MIC ([3]; Table 3a, ATCC 6258, 3 replicates, MIC recorded at 48 h, read-out: MIC, C. krusei ATCC 6258) of 2.1 to 4 µg/mL (≈ 3.81 to 7.25 µM) and an MIC [3, 25] of 2.01 to 4 µg/mL (≈ 3.64 to 7.25 µM). For the same molecule, the MIC ([4]; Table 3a, ATCC 22019, 3 replicates, MIC recorded at 48 h, read-out: MIC, C. parapsilosis ATCC 22019) was 2.1 to 4 µg/mL (≈ 3.81 to 7.25 µM), the MIC [4, 26] was 1.01 to 2 µg/mL (≈ 1.83 to 3.63 µM) and the IC90 [5, 27] was 2 µg/mL (≈ 3.63 µM). The IC90 [6, 28] was greater than 50 µg/mL, the IC90 [7, 29] was 10 µg/mL (≈ 18.1 µM) and the IC90 [8, 30] was 0.08 µg/mL (≈ 0.145 µM). The IC90 [9, 31] was 10 µg/mL (≈ 18.1 µM), the IC90 [10, 32] was greater than 50 µg/mL and the IC90 [11, 33] was 0.08 µg/mL (≈ 0.145 µM). It also gave an IC90 [12, 34] greater than 50 µg/mL, an IC50 ([13]; Table 2a) of 1 to 5 nM and an IC50 ([13]; Table 2b, additional results) of 1 to 5 nM.
With `Cc1c(-n2nccn2)sc2c1c(=O)n(C(C)(C)C(=O)NC(C)C)c(=O)n2C[C@H](OCCC#N)c1cc(F)ccc1O` [Compound I-246] the IC50 ([1]; Table 2b, additional results) was 1 to 5 nM, the MIC [2, 24] was greater than 4.01 µg/mL and the MIC [3, 25] was 2.01 to 4 µg/mL (≈ 3.44 to 6.85 µM). The MIC [4, 26] was 2.01 to 4 µg/mL (≈ 3.44 to 6.85 µM), the IC90 [5, 27] was 2 µg/mL (≈ 3.43 µM) and the IC90 [6, 28] was 2 µg/mL (≈ 3.43 µM). It also gave an IC90 [7, 29] of 10 µg/mL (≈ 17.1 µM), an IC90 [8, 30] of 0.4 µg/mL (≈ 0.685 µM) and an IC90 [9, 31] of 2 µg/mL (≈ 3.43 µM). It also gave an IC90 [10, 32] of 10 µg/mL (≈ 17.1 µM), an IC90 [11, 33] of 0.4 µg/mL (≈ 0.685 µM) and an IC90 [12, 34] greater than 50 µg/mL. The IC50 ([13]; Table 2b, additional results) was 0.3 to 1 nM.
